Columns and labels:
[1] = Acid dissociation constant of compound was determined (for pyrrolinium group); format: ADME
[2] = Acid dissociation constant of compound was determined (for carboxylic acid group); format: ADME

Compound: O=C(O)C1=NCCC1
- pKa [1]: 6.2
- pKa [2]: 1.8

— ChEMBL document CHEMBL1151582, “The effect of pH on the solution structure of 1-pyrroline-2-carboxylic acid as revealed by NMR and electrospray mass spectroscopy” (Bioorg Med Chem Lett, 1993)
